Columns and labels:
[1] = system: short-form c-Maf gene expression; assay: QPCR analysis of short-form c-Maf gene expression in SGTM2697 glaucomatous trabecular meshwork cells; type: cell-based, Human
Text: (§1) Human trabecular meshwork (TM) cells were derived from donor eyes (Central Florida Lions Eye and Tissue Bank, Tampa, Fla.) and cultured as previously described (Steely, et al. (1992), Invest Ophthalmol Vis Sci 33(7): 2242-50; Wilson, et al. (1993), Curr Eye Res 12(9): 783-93; Clark, et al. (1994), Invest Ophthalmol Vis Sci 35(1): 281-94.; Dickerson, et al. (1998), Exp Eye Res 66(6): 731-8; Wang, et al. (2001), Mol Vis 7: 89-94). TM cells were derived from pools of four each of either normal or glaucoma cell lines. Total RNA was isolated from TM cells from each pool using TRIZOL® reagent according to the manufacturer's instructions (Invitrogen, Carlsbad, Calif.).
First strand cDNA was generated from 1 μg of total RNA using random hexamers and TAQMAN® Reverse Transcription reagents according to the manufacturer's instructions (Applied Biosystems, Foster City, Calif.). The 100 μl reaction was subsequently diluted 20-fold to achieve an effective cDNA concentration of 0.5 ng/μl.
Measurement of short form c-Maf gene expression was performed by quantitative real-time RT-PCR (QPCR) using an ABI PRISM® 7700 Sequence Detection System (Applied Biosystems) essentially as described Shepard, et al. (2001) Invest Ophthalmol Vis Sci 42(13): 3173-81. Primers for short form-specific c-Maf amplification (Genbank accession #AF055376) were designed using PRIMER EXPRESS® software (Applied Biosystems). Forward and reverse primer sequences were […], SEQ ID NO:1, (nucleotides 3773-3799) and […], SEQ ID NO:2, (nucleotides 3823-3847), and the minor groove binding probe sequence was CTGCAAGCATATAATACA, SEQ ID NO:3, (nucleotides 3801-3818). 6FAM was bound to the 5′ end of the minor groove binding probe and refers to the type of fluorophore attached to the TAQMAN® probe. Other choices for the fluorophore are the JOE™ Fluorophore (Applied Biosystems) or VIC™ fluorophore (Applied Biosystems). The “Minor Groove Binding Non-Fluorescent Quencher” was bound to the 3′ end of the probe and is used to quench the fluorescence from 6FAM. […] Quantification of relative cDNA concentrations was done using the relative standard curve method as described in PE Biosystems User Bulletin #2, ABI PRISM® 7700 Sequence Detection System, 2001 (Applied BioSystems). […]
Short form c-Maf gene expression was analyzed using the Affymetrix U133A GENECHIP® analysis described in Example 2 of a pool of glaucomatous trabecular meshwork cells designated SGTM2697. […]
The effect of small molecule inhibition on short-form c-Maf gene expression was analyzed by QPCR analysis as described in Example 2 in glaucomatous trabecular meshwork (Passage 6) cells designated SGTM2697. […]

[2] = system: short-form c-Maf gene expression; assay: QPCR analysis of short-form c-Maf gene expression in TM70A trabecular meshwork cells; type: cell-based, Human; settings: 10^−7 M dexamethasone, c-Maf/18S normalized ratio, n=3
Text: as §1, with “Calif.). […]” for “Calif.).”
Measurement of short form c-Maf gene expression was performed by quantitative real-time RT-PCR (QPCR) using an ABI PRISM® 7700 Sequence Detection System (Applied Biosystems) essentially as described Shepard, et al. (2001) Invest Ophthalmol Vis Sci 42(13): 3173-81. […] The “Minor Groove Binding Non-Fluorescent Quencher” was bound to the 3′ end of the probe and is used to quench the fluorescence from 6FAM. […] Quantification of relative cDNA concentrations was done using the relative standard curve method as described in PE Biosystems User Bulletin #2, ABI PRISM® 7700 Sequence Detection System, 2001 (Applied BioSystems). […]

`CC(C)[C@H](CO)Nc1nc(Nc2cccc(Cl)c2)c2ncn(C(C)C)c2n1` [purvalanol A, 2-(1R-Isopropyl-2-hydroxyethylamino)-6-(3-chloroanilino)-9-isopropylpurine] was tested, and the “effect on TGFβ2-induced c-Maf expression” value ([1]; SGTM2697 (Passage 6) cells, co-treatment with 5 ng/ml TGFβ2, 16 hours, n=6) was “completely abolished” and the “basal c-Maf levels downregulated” value ([1]; SGTM2697 (Passage 6) cells, without TGFβ2, 16 hours, n=6) was 2.6 fold.

With `C[C@@H]1C[C@H]2[C@@H]3CCC4=CC(=O)C=C[C@]4(C)[C@@]3(F)[C@@H](O)C[C@]2(C)[C@@]1(O)C(=O)CO` [dexamethasone] the “short form c-Maf upregulated compared to control, day one” value ([2]; 1 day) was 2.1 fold and the “short form c-Maf upregulated compared to control, day 14” value ([2]; 14 days) was 3.2 fold.

B1: TGFβ2: transforming growth factor beta 2, used for induction of gene expression (protein, UniProt P61812 303-414, looked up)
Transforming growth factor …: ALDAAYCFRNVQDNCCLRPLYIDFKRDLGWKWIHEPKGYNANFCAGACPYLWSSDTQHSRVLSLYNTINPEASASPCCVSQDLEPLTILYYIGKTPKIEQLSNMIVKSCKCS
For B1, the “short-form c-Maf upregulated by TGFβ2” value ([1]; SGTM2697 (Passage 6) cells, 5 ng/ml TGFβ2, 16 hours, n=6) was 17 fold and the “short form c-Maf upregulated compared to control” value ([1]; pooled SGTM2697 cells, 5 ng/ml TGFβ2, 16 hours, c-Maf/18S normalized ratio, n=3) was 16 fold.

From patent publication US20050159432A1, “Short form c-Maf transcription factor antagonists for treatment of glaucoma” (Alcon, Inc., priority 2003, published 2005)
